From patent US7288659B2, “Acylaminothiazole derivatives, their preparation and therapeutic use” (Sanofi-Aventis, priority 2001, dated 2007)

SMILES	melting point [°C]
CCC[C@H](NC(=O)[C@@H](O)c1cc(F)cc(F)c1)C(=O)Nc1ncc(-c2ccccc2COC2CCCCC2)s1 [compound 55, (2S)-N-(5-{2-[(cyclohexyloxy)methyl]phenyl}-1,3-thiazol-2-yl)-2-{[(2S)-2-(3,5-difluorophenyl)-2-hydroxyacetyl]amino}pentanamide]	141
CCC[C@H](NC(=O)[C@H](O)c1cc(F)cc(F)c1)C(=O)Nc1ncc(-c2ccccc2COC2CCCCC2)s1 [compound 56, (2S)-N-(5-{2-[(cyclohexyloxy)methyl]phenyl}-1,3-thiazol-2-yl)-2-{[(2R)-2-(3,5-difluorophenyl)-2-hydroxyacetyl]amino}pentanamide]	112
CCC[C@H](NC(=O)[C@@H](O)c1cc(F)cc(F)c1)C(=O)Nc1nc(C)c(-c2ccccc2COC2CCCCC2)s1 [compound 57, (2S)-N-(5-{2-[(cyclohexyloxy)methyl]phenyl}-4-methyl-1,3-thiazol-2-yl)-2-{[(2S)-2-(3,5-difluorophenyl)-2-hydroxyacetyl]amino}pentanamide]	115
CCC[C@H](NC(=O)Cc1cc(F)cc(F)c1)C(=O)Nc1nc(CC)c(-c2ccccc2COC2CCCCC2)s1 [compound 59, (2S)-N-(5-{2-[(cyclohexyloxy)methyl]phenyl}-4-ethyl-1,3-thiazol-2-yl)-2-{[2-(3,5-difluorophenyl)-acetyl]amino}pentanamide]	80
CCC[C@H](NC(=O)C(=O)c1cc(F)cc(F)c1)C(=O)Nc1ncc(-c2ccccc2COC2CCCCC2)s1 [compound 60, (2S)-N-(5-{2-[(cyclohexyloxy)methyl]phenyl}-1,3-thiazol-2-yl)-2-{[2-(3,5-difluorophenyl)-2-oxoacetyl]-amino}pentanamide]	77
CCc1nc(NC(=O)[C@H](C)NC(=O)Cc2cc(F)cc(F)c2)sc1-c1ccccc1COC1CCCCC1 [compound 62, (2S)-N-(5-{2-[(cyclohexyloxy)methyl]phenyl}-4-ethyl-1,3-thiazol-2-yl)-2-{[2-(3,5-difluorophenyl)-acetyl]amino}propanamide]	70
CCC[C@H](NC(=O)Cc1cc(F)cc(F)c1)C(=O)Nc1nc(C(C)C)c(-c2ccccc2COC2CCCCC2)s1 [compound 63, (2S)-N-(5-{2-[(cyclohexyloxy)methyl]phenyl}-4-isopropyl-1,3-thiazol-2-yl)-2-{[2-(3,5-difluorophenyl)-acetyl]amino}pentanamide]	74
CCC[C@H](NC(=O)C(F)c1cc(F)cc(F)c1)C(=O)Nc1ncc(-c2ccccc2COC2CCCCC2)s1 (stereo partly drawn) [compound 64, (2S)-N-(5-{2-[(cyclohexyloxy)methyl]phenyl}-1,3-thiazol-2-yl)-2-{[2-(3,5-difluorophenyl)-2-fluoroacetyl]amino}pentanamide]	139
CCC[C@H](NC(=O)C(F)c1cc(F)cc(F)c1)C(=O)Nc1ncc(-c2ccccc2COC2CCCCC2)s1 (stereo partly drawn) [compound 67, (2S)-N-(5-{2-[(cyclohexyloxy)methyl]phenyl}-1,3-thiazol-2-yl)-2-{[2-(3,5-difluorophenyl)-2-fluoroacetyl]amino}pentanamide]	91
CC[C@H](NC(=O)Cc1cc(F)cc(F)c1)C(=O)Nc1nc(C)c(-c2ccccc2COC(C)C)s1 [compound 69, (2S)-2-{[2-(3,5-difluorophenyl)acetyl]amino}-N-{5-[2-(isopropoxymethyl)phenyl]-4-methyl-1,3-thiazol-2-yl}butanamide]	79
CC[C@H](NC(=O)Cc1cc(F)cc(F)c1)C(=O)Nc1ncc(-c2ccccc2COC(C)C)s1 [compound 70, (2S)-2-{[2-(3,5-difluorophenyl)acetyl]amino}-N-{5-[2-(isopropoxymethyl)phenyl]-1,3-thiazol-2-yl}butanamide]	73
CCC[C@H](NC(=O)Cc1cc(F)cc(F)c1)C(=O)Nc1nc(C)c(-c2ccccc2COC(C)C)s1 [compound 71, (2S)-2-{[2-(3,5-difluorophenyl)acetyl]amino}-N-{5-[2-(isopropoxymethyl)phenyl]-4-methyl-1,3-thiazol-2-yl}pentanamide]	66.6
CCC[C@H](NC(=O)Cc1cc(F)cc(F)c1)C(=O)Nc1ncc(-c2ccccc2COC(C)C)s1 [compound 72, (2S)-2-{[2-(3,5-difluorophenyl)acetyl]amino}-N-{5-[2-(isopropoxymethyl)phenyl]-1,3-thiazol-2-yl}pentanamide]	74
COC1CCC(OCc2ccccc2-c2cnc(NC(=O)[C@H](C)NC(=O)Cc3cc(F)cc(F)c3)s2)CC1 (stereo partly drawn) [compound 73, (2S)-2-{[2-(3,5-difluorophenyl)acetyl]amino}-N-[5-(2-{[(4-methoxycyclohexyl)oxy]methyl}phenyl]-1,3-thiazol-2-yl}propanamide]	149
CCC[C@H](NC(=O)C(F)(F)c1cc(F)cc(F)c1)C(=O)Nc1ncc(-c2ccccc2COC2CCCCC2)s1 [compound 74, (2S)-N-(5-{2-[(cyclohexyloxy)methyl]phenyl}-1,3-thiazol-2-yl)-2-{[2-(3,5-difluorophenyl)-2,2-difluoroacetyl]amino}pentanamide]	68
